Measured values from US4001086A (priority 1976, dated 1977).

Assays:
Cryptococcus neoformans = test: standard agar-dilution assay (MIC); assay type: cell-based
Source text: Antibiotic A-30641 inhibits the growth of bacteria and fungi which are pathogenic to animal and plant life. The minimal inhibitory concentrations (MIC's) at which antibiotic A-30641 inhibited a variety of organisms, using a standard agar-dilution assay, are summarized in Table III.

C. albicans = test: dermal C. albicans infection in rabbits, topical treatment; assay type: in vivo; settings: 10 days, 1% solution in propylene glycol
Source text: Antibiotic A-30641 is particularly useful when administered topically.

Compound: COC1c2cc(Cl)c(O)cc2ON2C(=O)C3NC(=O)C12SS3 (centres unmarked) [antibiotic A-30641]
- MIC (Cryptococcus neoformans): > 0.156 mg/L
- lesions caused by a dermal C. albicans infection, severity and size (C. albicans): reduced in severity and size
